Experimental data: article PMC7315563, “Bioactive fluorenes. Part III: 2,7-dichloro-9H-fluorene-based thiazolidinone and azetidinone analogues as anticancer and antimicrobial against multidrug resistant strains agents” (BMC Chemistry, 2020)
≈ marks a conversion by molar mass, not a printed value. One block for each compound: values may come before it.

How the values were obtained:
Format in all cases: cell-based
K. pneumoniae = assay: MIC by broth microdilution method (resazurin end point); settings: Klebsiella pneumoniae, 24 h at 37 °C
Protocol: (§1) Determination of Minimum inhibitory concentrations (MIC) of flourene derivatives was done using broth microdilution method. The procedure involved preparation of twofold dilutions of the fluorene derivatives ranging from (500–7.8 μg/mL) in sterile Mueller–Hinton broth inside the wells of 96-well microplate (Sarstedt, Germany). The inoculums of test strains prepared from fresh overnight cultures were adjusted to 0.5 McFarland standards, which equals to 1–2 × 10^8 CFU/mL for bacteria, the procedure was done according to CLSI 2012 [42]. […] For this assay the positive control agents were vancomycin (range: 0.7–50 μg/mL), gentamicin (range: 0.15–10 μg/mL) and the negative control was 1% DMSO.
(§2) For proper determination of the MIC end point resazurin dye has been used. A stock solution of resazurin sodium salt powder (Titan Biotech) was prepared at 0.02% (wt/vol) in distilled water, sterilized by filtration through a […] filter into a sterile light protected container then stored protected from light at 4 °C for up to 1 week, or at − […] for long term use, then 10–15% resazurin solution of the total volume in wells was added to each well and incubation for 1–4 h at 37 °C was done. A change in color from blue to pink indicates the growth of bacteria, and MIC was defined as the lowest concentration of the drug that prevented this change in color.

E. coli = assay: as above; settings: Escherichia coli, 24 h at 37 °C
Protocol: as §1, §2

P. aeruginosa = assay: as above; settings: Pseudomonas aeruginosa, 24 h at 37 °C
Protocol: as §1, §2

[1] = tested on: Klebsiella pneumoniae (K. pneumoniae), multidrug resistant clinical isolate; assay: agar well diffusion assay; settings: 24 h, PC positive control Gentamicin 10 µg/mL
Outline: (§3)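 Multidrug-resistant clinical isolates swabbed on Mueller–Hinton agar at about 1–5 × 10^5 CFU/mL; 0.5 cm wells received 50 μL compound at 500 μg/mL in 1% DMSO. Incubation 24 h, 37 °C for bacteria and C. albicans, 25 °C for Aspergillus; inhibition zone diameter measured in mm.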

[2] = tested on: Acinetobacter baumannii (A. baumannii), multidrug resistant clinical isolate; assay: agar well diffusion assay; settings: 24 h, PC positive control Gentamicin 10 µg/mL
Outline: as §3

[3] = tested on: Escherichia coli (E. coli), multidrug resistant clinical isolate; assay: agar well diffusion assay; settings: 24 h, PC positive control Gentamicin 10 µg/mL
Outline: as §3

[4] = tested on: Pseudomonas aeruginosa (P. aeruginosa), multidrug resistant clinical isolate; assay: agar well diffusion assay; settings: 24 h, PC positive control Gentamicin 10 µg/mL
Outline: as §3

S. aureus = assay: MIC by broth microdilution method (resazurin end point); settings: Staphylococcus aureus, 24 h
Protocol: as §1, §2

MRSA = assay: as above; settings: Staphylococcus aureus, 24 h
Protocol: as §1, §2

[5] = tested on: Staphylococcus aureus (S. aureus), multidrug resistant clinical isolate; assay: agar well diffusion assay; settings: Staphylococcus aureus, 24 h, read-out: Mean zone of inhibition
Outline: as §3

[6] = tested on: methicillin-resistant Staphylococcus aureus (MRSA); assay: agar well diffusion assay; settings: Staphylococcus aureus, 24 h, read-out: Mean zone of inhibition
Outline: as §3

[7] = tested on: Streptococcus pneumoniae (S. pneumoniae), multidrug resistant clinical isolate; assay: agar well diffusion assay; settings: Streptococcus pneumoniae, 24 h, read-out: Mean zone of inhibition
Outline: as §3

[8] = tested on: Aspergillus niger (A. niger); assay: agar well diffusion assay; settings: 24 h, PC positive control fluconazole 25 µg/mL
Outline: as §3

[9] = tested on: Candida albicans (C. albicans); assay: agar well diffusion assay; settings: 24 h, PC positive control fluconazole 25 µg/mL
Outline: as §3

[10] = tested on: Aspergillus flavus (A. flavus); assay: agar well diffusion assay; settings: 24 h, PC positive control fluconazole 25 µg/mL
Outline: as §3

- MIC (K. pneumoniae): 0.3 µg/mL (≈ 0.628 µM)
- MIC (E. coli): 0.3 µg/mL (≈ 0.628 µM)
- MIC (P. aeruginosa): 0.3 µg/mL (≈ 0.628 µM)
Structure (SMILES): CNC(C)C1CCC(N)C(OC2C(N)CC(N)C(OC3OCC(C)(O)C(NC)C3O)C2O)O1 (stereo not drawn) [Gentamicin, reference compound]
- zone of inhibition at 10 µg/mL [1]: 20 mm
- zone of inhibition at 10 µg/mL [2]: 20 mm
- zone of inhibition at 10 µg/mL [3]: 28 mm
- zone of inhibition at 10 µg/mL [4]: 30 mm

Structure (SMILES): CN[C@H](CC(C)C)C(=O)N[C@H]1C(=O)N[C@@H](CC(N)=O)C(=O)N[C@H]2C(=O)N[C@H]3C(=O)N[C@H](C(=O)N[C@H](C(=O)O)c4cc(O)cc(O)c4-c4cc3ccc4O)[C@H](O)c3ccc(c(Cl)c3)Oc3cc2cc(c3O[C@@H]2O[C@H](CO)[C@@H](O)[C@H](O)[C@H]2O[C@H]2C[C@](C)(N)[C@H](O)[C@H](C)O2)Oc2ccc(cc2Cl)[C@H]1O [Vancomycin, reference compound]
- MIC (S. aureus): 0.7 µg/mL (≈ 0.483 µM)
- MIC (MRSA): 0.7 µg/mL (≈ 0.483 µM)
- zone of inhibition at 50 µg/mL [5]: 28 mm
- zone of inhibition at 50 µg/mL [6]: 26 mm
- zone of inhibition at 50 µg/mL [7]: 20 mm

Structure (SMILES): OC(Cn1cncn1)(Cn1cncn1)c1ccc(F)cc1F [fluconazole]
- zone of inhibition at 25 µg/mL [8]: 18 mm
- zone of inhibition at 25 µg/mL [9]: 20 mm
- zone of inhibition at 25 µg/mL [10]: 18 mm
